Measured values from US8871208B2, “11-β-hydroxysteroid dehydrogenase type 1 (11β-HSD1) inhibitors and uses thereof” (AbbVie Inc., priority 2009, dated 2014).
Read-outs that look alike come from different tables or passages of the source.

Assays:
[1] = target: T1, truncated human 11β-HSD-1 enzyme (24-287AA) (Homo sapiens, UniProt P28845); assay: Human 11β-HSD-1 enzymatic SPA assay; assay type: biochemical
T1 construct: truncated human 11β-HSD-1 enzyme (24-287AA); made in house; host or cells: E. coli (lysate)
Protocol: (§1) The ability of test compounds to inhibit human 11β-HSD-1 enzymatic activity in vitro was evaluated in a Scintillation Proximity Assay (SPA). […] The reaction was stopped by adding a non-specific 11β-HSD inhibitor, 18β-glycyrrhetinic acid. The tritiated cortisol was captured by a mixture of an anti-cortisol monoclonal antibody and SPA beads coated with anti-mouse antibodies. The reaction plate was shaken at room temperature and the radioactivity bound to SPA beads was then measured on a β-scintillation counter. The 11β-HSD-1 assay was carried out in 96-well microtiter plates in a total volume of 220 μl. […] In order to drive the reaction in the forward direction, 1 mM G-6-P was also added. Solid compound was dissolved in DMSO to make a 10 mM stock followed by a subsequent 10-fold dilution with 3% DMSO in Tris/EDTA buffer (pH 7.4). 22 μl of titrated compounds was then added in triplicate to the substrate. Reactions were initiated by the addition of 10 μl of 0.1 mg/ml E. coli lysates overexpressing 11β-HSD-1 enzyme. After shaking and incubating plates for 30 minutes at room temperature, reactions were stopped by adding 10 μl of 1 mM glycyrrhetinic acid. The product, tritiated cortisol, was captured by adding 10 μl of 1 μM monoclonal anti-cortisol antibodies and 100 μl SPA beads coated with anti-mouse antibodies. After shaking for 30 minutes, plates were read on a liquid scintillation counter Topcount. Percent inhibition was calculated based on the background and the maximal signal. Wells that contained substrate without compound or enzyme were used as the background, while the wells that contained substrate and enzyme without any compound were considered as maximal signal. Percent of inhibition of each compound was calculated relative to the maximal signal and IC50 curves were generated. This assay was applied to 11β-HSD-2 as well, whereby tritiated cortisol and NAD^+ were used as substrate and cofactor, respectively.

human 11β-HSD-2 = target: T2, human 11β-HSD-2 (Homo sapiens, UniProt P80365); assay: Human 11β-HSD-2 enzymatic SPA assay; assay type: biochemical
T2 sequence (P80365 1-405): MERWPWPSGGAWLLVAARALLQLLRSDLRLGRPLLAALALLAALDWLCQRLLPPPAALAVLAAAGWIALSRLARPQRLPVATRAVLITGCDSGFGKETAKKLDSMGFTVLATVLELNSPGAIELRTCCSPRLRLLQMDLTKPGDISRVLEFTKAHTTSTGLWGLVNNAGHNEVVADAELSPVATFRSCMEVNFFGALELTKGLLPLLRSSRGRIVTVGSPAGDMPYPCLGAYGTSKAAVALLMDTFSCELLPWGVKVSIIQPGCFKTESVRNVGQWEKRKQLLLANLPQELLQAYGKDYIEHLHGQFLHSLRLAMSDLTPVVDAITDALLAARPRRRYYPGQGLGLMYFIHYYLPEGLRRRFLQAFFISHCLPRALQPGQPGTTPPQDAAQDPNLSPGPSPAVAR
Protocol: as §1

T1 sequence (P28845 24-287): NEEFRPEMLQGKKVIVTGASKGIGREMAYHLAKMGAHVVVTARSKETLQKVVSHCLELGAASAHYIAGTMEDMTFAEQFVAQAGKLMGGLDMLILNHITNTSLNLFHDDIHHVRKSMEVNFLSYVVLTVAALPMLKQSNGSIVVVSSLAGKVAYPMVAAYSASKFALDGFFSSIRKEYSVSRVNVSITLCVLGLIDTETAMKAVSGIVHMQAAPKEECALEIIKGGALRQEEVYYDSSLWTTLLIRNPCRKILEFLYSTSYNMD

Structure (SMILES)	IC50 ([1]; human enzyme, SPA) [nM]	IC50 (human 11β-HSD-2; human enzyme, SPA) [nM]	IC50 [1] [nM]	IC50 (human 11β-HSD-2) [nM]
CC1(C)C(=O)N(C2CCCCCC2)CC1COc1ccccc1 (stereo not drawn) [1-cycloheptyl-3,3-dimethyl-4-(phenoxymethyl)pyrrolidin-2-one]	95	> 8750	–	–
CN(CC1CN(C2CCCCCC2)C(=O)C1(C)C)c1ccccc1F (stereo not drawn) [1-cycloheptyl-4-{[(2-fluorophenyl)(methyl)amino]methyl}-3,3-dimethylpyrrolidin-2-one]	73	> 10000	–	–
CC(C)(Oc1ccc(Cl)cc1)C(=O)NC1C2CC3CC1CC(Cc1nn[nH]n1)(C3)C2 (stereo not drawn) [2-(4-chlorophenoxy)-2-methyl-N-[(E)-5-(2H-tetraazol-5-ylmethyl)-2-adamantyl]propanamide]	41	> 100000	–	–
CC(C(=O)N[C@@H]1[C@@H]2C[C@@H]3C[C@H]1C[C@@](O)(C3)C2)N1C[C@@H](C)O[C@@H](C)C1 (stereo partly drawn) [2-[(cis)-2,6-dimethylmorpholin-4-yl]-N-[(E)-5-hydroxy-2-adamantyl]propanamide]	110	> 10000	–	–
CC(C(=O)NC1C2CC3CC1CC(O)(C3)C2)N1CCCCCC1 (stereo not drawn) [2-azepan-1-yl-N-[(E)-5-hydroxy-2-adamantyl]propanamide]	92	> 10000	–	–
CC(C)(Oc1ccc(Cl)cc1)C(=O)NC1C2CC3CC1CC(CS(=O)(=O)NCc1ccc(C(=O)O)cc1)(C3)C2 (stereo not drawn) [4-[({[((E)-4-{[2-(4-chlorophenoxy)-2-methylpropanoyl]amino}-1-adamantyl)methyl]sulfonyl}amino)methyl]benzoic acid]	48	18000	–	–
CC12CCC(N3CC(COc4ccc(C#N)cn4)C(C)(C)C3=O)(CC1)CC2 (stereo not drawn) [6-{[4,4-dimethyl-1-(4-methylbicyclo[2.2.2]oct-1-yl)-5-oxopyrrolidin-3-yl]methoxy}nicotinonitrile]	77	8470	–	–
CC1(C)C(=O)N(C2C3CCCC2CC(C(N)=O)C3)CC1COc1ccc(C#N)cn1 (stereo not drawn) [9-(4-{[(5-cyanopyridin-2-yl)oxy]methyl}-3,3-dimethyl-2-oxopyrrolidin-1-yl)bicyclo[3.3.1]nonane-3-carboxamide]	–	–	51	8280
CC(C)(C(=O)N[C@@H]1[C@@H]2C[C@@H]3C[C@H]1C[C@@](C(=O)O)(C3)C2)c1ccccc1 [(E)-4-(2-methyl-2-phenyl-propionylamino)-adamantane-1-carboxylic acid]	82	> 10000	–	–
CC1(C)C(=O)N(C2C3CC4CC2CC(C(N)=O)(C4)C3)CC1COc1ccc(-n2cncn2)cc1 (stereo not drawn) [(E)-4-(3,3-dimethyl-2-oxo-4-{[4-(1H-1,2,4-triazol-1-yl)phenoxy]methyl}pyrrolidin-1-yl) adamantane-1-carboxamide]	–	1600	41	–
CC1(C)C(=O)N(C2C3CC4CC2CC(C#N)(C4)C3)CC1COc1ccc(C#N)cn1 (stereo not drawn) [(E)-4-(4-{[(5-cyanopyridin-2-yl)oxy]methyl}-3,3-dimethyl-2-oxopyrrolidin-1-yl) adamantane-1-carbonitrile]	29	5270	–	–
CC1(C(=O)N[C@@H]2[C@@H]3C[C@@H]4C[C@H]2C[C@@](C(N)=O)(C4)C3)CCN(Cc2ccccc2Cl)C1=O (stereo partly drawn) [(E)-4-(aminocarbonyl)-2-adamantyl]-1-(2-chlorobenzyl)-3-methyl-2-oxopyrrolidine-3-carboxamide]	23	6300	–	–
CC1(C(=O)N[C@@H]2[C@@H]3C[C@@H]4C[C@H]2C[C@@](C(N)=O)(C4)C3)CCN(Cc2cccc(Cl)c2)C1=O (stereo partly drawn) [(E)-4-(aminocarbonyl)-2-adamantyl]-1-(3-chlorobenzyl)-3-methyl-2-oxopyrrolidine-3-carboxamide]	–	10000	–	–
Cc1ccccc1CN1CCC(C)(C(=O)NC2C3CC4CC(C3)C(C(N)=O)C2C4)C1=O (stereo not drawn) [(E)-4-(aminocarbonyl)-2-adamantyl]-3-methyl-1-(2-methylbenzyl)-2-oxopyrrolidine-3-carboxamide]	23	12000	–	–
CC(C)(C(=O)NC1C2CC3CC1CC(C(=O)O)(C3)C2)N1CCC(F)C1 [(E)-4-({2-[(3R)-3-Fluoropyrrolidin-1-yl]-2-methylpropanoyl}amino)adamantane-1-carboxylic acid]	58	> 10000	–	–
CC(C)(Oc1cccc(C(F)(F)F)c1)C(=O)NC1C2CC3CC1CC(C(N)=O)(C3)C2 (stereo not drawn) [(E)-4-({2-methyl-2-[3-(trifluoromethyl)phenoxy]propanoyl}amino)adamantane-1-carboxamide]	44	11000	–	–
CC(C)(Oc1ccc(OC(F)(F)F)cc1)C(=O)NC1C2CC3CC1CC(C(N)=O)(C3)C2 (stereo not drawn) [(E)-4-({2-methyl-2-[4-(trifluoromethoxy)phenoxy]propanoyl}amino)adamantane-1-carboxamide]	40	2600	–	–
CC1CN(c2ccccn2)CCN1C(C)(C)C(=O)NC1C2CC3CC1CC(C(=O)O)(C3)C2 [(E)-4-({2-methyl-2-[(2S)-2-methyl-4-pyridin-2-ylpiperazin-1-yl]propanoyl}amino) adamantane-1-carboxylic acid]	–	> 30000	–	–
NC(=O)C12CC3CC(C1)C(NC(=O)C1(Oc4ccc(Cl)cc4)CCC1)C(C3)C2 (stereo not drawn) [(E)-4-({[1-(4-chlorophenoxy)cyclobutyl]carbonyl}amino)adamantane-1-carboxamide]	89	90000	–	–
NC(=O)[C@]12C[C@@H]3C[C@H](C1)[C@@H](NC(=O)C1(c4ccc(Cl)cc4)CC1)[C@@H](C3)C2 [(E)-4-({[1-(4-chlorophenyl)cyclopropyl]carbonyl}amino)adamantane-1-carboxamide]	33	> 30000	–	–
CC1(C)C(=O)N(C2C3CC4CC2CC(C(N)=O)(C4)C3)CC1COc1ccc(C(F)(F)F)cn1 (stereo not drawn) [(E)-4-[3,3-dimethyl-2-oxo-4-({[5-(trifluoromethyl)pyridin-2-yl]oxy}methyl)pyrrolidin-1-yl]adamantane-1-carboxamide]	39	1360	–	–
CC(C)(OCc1ccc(C(F)(F)F)cc1)C(=O)N[C@@H]1[C@@H]2C[C@@H]3C[C@H]1C[C@@](C(N)=O)(C3)C2 [(E)-4-[(2-methyl-2-{[4-(trifluoromethyl)benzyl]oxy}propanoyl)amino]adamantane-1-carboxamide]	28	> 10000	–	–
CC(C)(Oc1ccc(-n2cccn2)cn1)C(=O)N[C@@H]1[C@@H]2C[C@@H]3C[C@H]1C[C@@](C(N)=O)(C3)C2 [(E)-4-[(2-methyl-2-{[5-(1H-pyrazol-1-yl)pyridin-2-yl]oxy}propanoyl)amino]adamantine-1-carboxamide]	30	> 100000	–	–
CCN(CC)S(=O)(=O)c1cc(Cl)ccc1OC(C)(C)C(=O)NC1C2CC3CC1CC(C(N)=O)(C3)C2 (stereo not drawn) [(E)-4-[(2-{4-chloro-2-[(diethylamino)sulfonyl]phenoxy}-2-methylpropanoyl)amino]adamantane-1-carboxamide]	68	65000	–	–
CC(C)(C(=O)N[C@@H]1[C@@H]2C[C@@H]3C[C@H]1C[C@@](C(N)=O)(C3)C2)c1ccc(-c2cccnc2)cc1 [(E)-4-{[2-methyl-2-(4-pyridin-3-ylphenyl)propanoyl]amino}adamantane-1-carboxamide]	–	44000	–	–
CC(C)(C)OC(=O)Nc1ccc(OC(C)(C)C(=O)N[C@@H]2[C@@H]3C[C@@H]4C[C@H]2C[C@@](C(N)=O)(C4)C3)cc1 [tert-butyl 4-(2-{[(E)-5-(aminocarbonyl)-2-adamantyl]amino}-1,1-dimethyl-2-oxoethoxy)phenylcarbamate]	–	37000	–	–
